{"source": "PubChem BioAssay (NCI)", "note": "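Interpolation was linear, between the two tested concentrations surrounding the appropriate level; five concentrations were tested over 48 hours in 96-well plates. TGI marks complete inhibition of growth.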"}
{"tested_on": "A549 NSCLC", "test": "NCI-60 cell line screen, 48 h", "units": {"TGI": "µM"}}
{"smiles": "COc1ccc2c(cnc3c4cc(OC)c(OC)cc4ccc23)c1", "TGI": "> 100"}
{"smiles": "Cn1c(COC(=O)Nc2ccccc2)c(COC(=O)Nc2ccccc2)c2ccc3cc(Cl)c(Cl)cc3c21", "TGI": "> 75"}
{"smiles": "C=CCOc1ccc(C2C(C(=O)OCC)C(=O)CC(C)(O)C2C(=O)OCC)cc1OC", "note": "(configuration not stated)", "TGI": "> 100"}
{"smiles": "CC(C)=CCNc1ncnc2c1ncn2CCC#N", "TGI": "> 100"}
{"smiles": "Nc1nc(Cl)cc(NCC2(CO)CCCC2)n1", "TGI": "> 100"}
{"tested_on": "ACHN renal", "test": "NCI-60 cell line screen, 48 h", "units": {"TGI": "µM"}}
{"smiles": "COc1ccc2c(cnc3c4cc(OC)c(OC)cc4ccc23)c1", "TGI": "> 100"}
{"smiles": "Cn1c(COC(=O)Nc2ccccc2)c(COC(=O)Nc2ccccc2)c2ccc3cc(Cl)c(Cl)cc3c21", "TGI": 29}
{"smiles": "C=CCOc1ccc(C2C(C(=O)OCC)C(=O)CC(C)(O)C2C(=O)OCC)cc1OC", "note": "(configuration not stated)", "TGI": "> 100"}
{"smiles": "CC(C)=CCNc1ncnc2c1ncn2CCC#N", "TGI": "> 100"}
{"smiles": "Nc1nc(Cl)cc(NCC2(CO)CCCC2)n1", "TGI": "> 100"}
{"tested_on": "BT-549 breast", "test": "NCI-60 cell line screen, 48 h", "units": {"TGI": "µM"}}
{"smiles": "COc1ccc2c(cnc3c4cc(OC)c(OC)cc4ccc23)c1", "TGI": "> 100"}
{"smiles": "Cn1c(COC(=O)Nc2ccccc2)c(COC(=O)Nc2ccccc2)c2ccc3cc(Cl)c(Cl)cc3c21", "TGI": 12.6}
{"smiles": "C=CCOc1ccc(C2C(C(=O)OCC)C(=O)CC(C)(O)C2C(=O)OCC)cc1OC", "note": "(configuration not stated)", "TGI": "> 100"}
{"smiles": "CC(C)=CCNc1ncnc2c1ncn2CCC#N", "TGI": "> 100"}
{"smiles": "Nc1nc(Cl)cc(NCC2(CO)CCCC2)n1", "TGI": "> 100"}
{"tested_on": "CCRF-CEM leukemia", "test": "NCI-60 cell line screen, 48 h", "units": {"TGI": "µM"}}
{"smiles": "COc1ccc2c(cnc3c4cc(OC)c(OC)cc4ccc23)c1", "TGI": "> 100"}
{"smiles": "Cn1c(COC(=O)Nc2ccccc2)c(COC(=O)Nc2ccccc2)c2ccc3cc(Cl)c(Cl)cc3c21", "TGI": "> 75"}
{"smiles": "C=CCOc1ccc(C2C(C(=O)OCC)C(=O)CC(C)(O)C2C(=O)OCC)cc1OC", "note": "(configuration not stated)", "TGI": "> 100"}
{"smiles": "CC(C)=CCNc1ncnc2c1ncn2CCC#N", "TGI": "> 100"}
{"smiles": "Nc1nc(Cl)cc(NCC2(CO)CCCC2)n1", "TGI": "> 100"}
{"tested_on": "HCT-116 colon", "test": "NCI-60 cell line screen, 48 h", "units": {"TGI": "µM"}}
{"smiles": "COc1ccc2c(cnc3c4cc(OC)c(OC)cc4ccc23)c1", "TGI": "> 100"}
{"smiles": "Cn1c(COC(=O)Nc2ccccc2)c(COC(=O)Nc2ccccc2)c2ccc3cc(Cl)c(Cl)cc3c21", "TGI": 38.5}
{"smiles": "C=CCOc1ccc(C2C(C(=O)OCC)C(=O)CC(C)(O)C2C(=O)OCC)cc1OC", "note": "(configuration not stated)", "TGI": "> 100"}
{"smiles": "CC(C)=CCNc1ncnc2c1ncn2CCC#N", "TGI": "> 100"}
{"smiles": "Nc1nc(Cl)cc(NCC2(CO)CCCC2)n1", "TGI": "> 100"}
{"tested_on": "IGROV1 ovarian", "test": "NCI-60 cell line screen, 48 h", "units": {"TGI": "µM"}}
{"smiles": "COc1ccc2c(cnc3c4cc(OC)c(OC)cc4ccc23)c1", "TGI": "> 100"}
{"smiles": "Cn1c(COC(=O)Nc2ccccc2)c(COC(=O)Nc2ccccc2)c2ccc3cc(Cl)c(Cl)cc3c21", "TGI": 23.5}
{"smiles": "C=CCOc1ccc(C2C(C(=O)OCC)C(=O)CC(C)(O)C2C(=O)OCC)cc1OC", "note": "(configuration not stated)", "TGI": "> 100"}
{"smiles": "CC(C)=CCNc1ncnc2c1ncn2CCC#N", "TGI": "> 100"}
{"smiles": "Nc1nc(Cl)cc(NCC2(CO)CCCC2)n1", "TGI": "> 100"}
{"tested_on": "MALME-3M melanoma", "test": "NCI-60 cell line screen, 48 h", "units": {"TGI": "µM"}}
{"smiles": "COc1ccc2c(cnc3c4cc(OC)c(OC)cc4ccc23)c1", "TGI": "> 100"}
{"smiles": "Cn1c(COC(=O)Nc2ccccc2)c(COC(=O)Nc2ccccc2)c2ccc3cc(Cl)c(Cl)cc3c21", "TGI": 6.59}
{"smiles": "C=CCOc1ccc(C2C(C(=O)OCC)C(=O)CC(C)(O)C2C(=O)OCC)cc1OC", "note": "(configuration not stated)", "TGI": "> 100"}
{"smiles": "CC(C)=CCNc1ncnc2c1ncn2CCC#N", "TGI": "> 100"}
{"smiles": "Nc1nc(Cl)cc(NCC2(CO)CCCC2)n1", "TGI": "> 100"}
{"tested_on": "MDA-MB-231 breast", "test": "NCI-60 cell line screen, 48 h", "units": {"TGI": "µM"}}
{"smiles": "COc1ccc2c(cnc3c4cc(OC)c(OC)cc4ccc23)c1", "TGI": "> 100"}
{"smiles": "Cn1c(COC(=O)Nc2ccccc2)c(COC(=O)Nc2ccccc2)c2ccc3cc(Cl)c(Cl)cc3c21", "TGI": 12.7}
{"smiles": "C=CCOc1ccc(C2C(C(=O)OCC)C(=O)CC(C)(O)C2C(=O)OCC)cc1OC", "note": "(configuration not stated)", "TGI": "> 100"}
{"smiles": "CC(C)=CCNc1ncnc2c1ncn2CCC#N", "TGI": "> 100"}
{"smiles": "Nc1nc(Cl)cc(NCC2(CO)CCCC2)n1", "TGI": "> 100"}
{"tested_on": "MDA-N", "test": "NCI-60 cell line screen, 48 h", "units": {"TGI": "µM"}}
{"smiles": "COc1ccc2c(cnc3c4cc(OC)c(OC)cc4ccc23)c1", "TGI": "> 100"}
{"smiles": "Cn1c(COC(=O)Nc2ccccc2)c(COC(=O)Nc2ccccc2)c2ccc3cc(Cl)c(Cl)cc3c21", "TGI": 18.3}
{"smiles": "C=CCOc1ccc(C2C(C(=O)OCC)C(=O)CC(C)(O)C2C(=O)OCC)cc1OC", "note": "(configuration not stated)", "TGI": "> 100"}
{"smiles": "CC(C)=CCNc1ncnc2c1ncn2CCC#N", "TGI": "> 100"}
{"smiles": "Nc1nc(Cl)cc(NCC2(CO)CCCC2)n1", "TGI": "> 100"}
{"tested_on": "NCI-H226 lung", "test": "NCI-60 cell line screen, 48 h", "units": {"TGI": "µM"}}
{"smiles": "COc1ccc2c(cnc3c4cc(OC)c(OC)cc4ccc23)c1", "TGI": "> 100"}
{"smiles": "Cn1c(COC(=O)Nc2ccccc2)c(COC(=O)Nc2ccccc2)c2ccc3cc(Cl)c(Cl)cc3c21", "TGI": 54.7}
